Measured values from PubChem BioAssay (NCI).
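96-well plates; 48 h exposure; 5 concentrations. Endpoints by linear interpolation between flanking doses. Not reached: highest tested concentration assigned. GI50 is the concentration that inhibits growth by half. TGI: total growth inhibition.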

Columns and labels:
Test in all cases: NCI tumour cell line growth inhibition, 48 h
A498 renal = tested on: A498 renal
A549 NSCLC = tested on: A549 NSCLC
BT-549 breast = tested on: BT-549 breast
CAKI-1 renal = tested on: CAKI-1 renal
CCRF-CEM leukemia = tested on: CCRF-CEM leukemia
COLO 205 colon = tested on: COLO 205 colon
DU-145 prostate = tested on: DU-145 prostate
EKVX NSCLC = tested on: EKVX NSCLC
HCC-2998 colon = tested on: HCC-2998 colon
HCT-15 colon = tested on: HCT-15 colon
HL-60(TB) leukemia = tested on: HL-60(TB) leukemia
HOP-62 NSCLC = tested on: HOP-62 NSCLC
HOP-92 NSCLC = tested on: HOP-92 NSCLC
HS 578T breast = tested on: HS 578T breast
HT29 colon = tested on: HT29 colon
IGROV1 ovarian = tested on: IGROV1 ovarian
K-562 leukemia = tested on: K-562 leukemia
KM12 colon = tested on: KM12 colon
LOX IMVI melanoma = tested on: LOX IMVI melanoma
MCF7 breast = tested on: MCF7 breast
MDA-MB-231 breast = tested on: MDA-MB-231 breast
MDA-MB-435 = tested on: MDA-MB-435
MOLT-4 leukemia = tested on: MOLT-4 leukemia
NCI-H226 lung = tested on: NCI-H226 lung
NCI-H23 lung = tested on: NCI-H23 lung
NCI-H460 lung = tested on: NCI-H460 lung
NCI/ADR-RES ovarian = tested on: NCI/ADR-RES ovarian
OVCAR-3 ovarian = tested on: OVCAR-3 ovarian
OVCAR-5 ovarian = tested on: OVCAR-5 ovarian
OVCAR-8 ovarian = tested on: OVCAR-8 ovarian
PC-3 prostate = tested on: PC-3 prostate
RPMI-8226 leukemia = tested on: RPMI-8226 leukemia
SF-268 CNS = tested on: SF-268 CNS
SF-295 CNS = tested on: SF-295 CNS
SF-539 CNS = tested on: SF-539 CNS
SK-MEL-2 melanoma = tested on: SK-MEL-2 melanoma
SK-MEL-28 melanoma = tested on: SK-MEL-28 melanoma
SK-MEL-5 melanoma = tested on: SK-MEL-5 melanoma
SK-OV-3 ovarian = tested on: SK-OV-3 ovarian
SN12C renal = tested on: SN12C renal
SNB-19 CNS = tested on: SNB-19 CNS
SNB-75 CNS = tested on: SNB-75 CNS
SR leukemia = tested on: SR leukemia
SW-620 colon = tested on: SW-620 colon
T-47D breast = tested on: T-47D breast
TK-10 renal = tested on: TK-10 renal
UACC-62 melanoma = tested on: UACC-62 melanoma
UO-31 renal = tested on: UO-31 renal

## Cn1cc(-c2ccc3cc(-c4ccc(CC(=O)Nc5cc(C(C)(C)C)on5)cc4)cnc3c2)cn1
A498 renal
  GI50: 269 nM
  TGI: 2260 nM
A549 NSCLC
  GI50: 1720 nM
  TGI: > 100000 nM
BT-549 breast
  GI50: 2080 nM
  TGI: 31800 nM
CAKI-1 renal
  GI50: 426 nM
  TGI: 3450 nM
CCRF-CEM leukemia
  GI50: 2170 nM
  TGI: > 100000 nM
COLO 205 colon
  GI50: 2950 nM
  TGI: > 100000 nM
DU-145 prostate
  GI50: 1050 nM
  TGI: 10200 nM
EKVX NSCLC
  GI50: 624 nM
  TGI: 3450 nM
HCC-2998 colon
  GI50: 2890 nM
  TGI: 21000 nM
HCT-15 colon
  GI50: 466 nM
  TGI: 4870 nM
HL-60(TB) leukemia
  GI50: 2660 nM
  TGI: 7450 nM
HOP-62 NSCLC
  GI50: 2540 nM
  TGI: > 100000 nM
HOP-92 NSCLC
  GI50: 4230 nM
  TGI: 26000 nM
HS 578T breast
  GI50: 397 nM
  TGI: 15200 nM
HT29 colon
  GI50: 2260 nM
  TGI: > 100000 nM
IGROV1 ovarian
  GI50: 356 nM
  TGI: 3520 nM
K-562 leukemia
  GI50: 1850 nM
  TGI: > 100000 nM
KM12 colon
  GI50: 70 nM
  TGI: 11200 nM
LOX IMVI melanoma
  GI50: 945 nM
  TGI: 10900 nM
MCF7 breast
  GI50: 1920 nM
  TGI: 17800 nM
MDA-MB-231 breast
  GI50: 2260 nM
  TGI: 12200 nM
MDA-MB-435
  GI50: 1430 nM
  TGI: 3540 nM
MOLT-4 leukemia
  GI50: 3010 nM
  TGI: > 100000 nM
NCI-H226 lung
  GI50: 2460 nM
  TGI: 34600 nM
NCI-H23 lung
  GI50: 2270 nM
  TGI: 10500 nM
NCI-H460 lung
  GI50: 840 nM
  TGI: 2550 nM
NCI/ADR-RES ovarian
  GI50: 1840 nM
  TGI: 5110 nM
OVCAR-3 ovarian
  GI50: 2490 nM
  TGI: 12700 nM
OVCAR-5 ovarian
  GI50: 4400 nM
  TGI: 18900 nM
OVCAR-8 ovarian
  GI50: 2160 nM
  TGI: > 100000 nM
PC-3 prostate
  GI50: 2400 nM
  TGI: 20800 nM
RPMI-8226 leukemia
  GI50: 2340 nM
  TGI: > 100000 nM
SF-268 CNS
  GI50: 1960 nM
  TGI: 14800 nM
SF-295 CNS
  GI50: 1650 nM
  TGI: 6740 nM
SF-539 CNS
  GI50: 339 nM
  TGI: 14400 nM
SK-MEL-2 melanoma
  GI50: 922 nM
  TGI: 12400 nM
SK-MEL-28 melanoma
  GI50: 1950 nM
  TGI: 5250 nM
SK-MEL-5 melanoma
  GI50: 2310 nM
  TGI: 6550 nM
SK-OV-3 ovarian
  GI50: 657 nM
  TGI: > 100000 nM
SN12C renal
  GI50: 1150 nM
  TGI: 10400 nM
SNB-19 CNS
  GI50: 2180 nM
  TGI: 8680 nM
SNB-75 CNS
  GI50: 1110 nM
  TGI: 3030 nM
SR leukemia
  GI50: 3070 nM
  TGI: > 100000 nM
SW-620 colon
  GI50: 1540 nM
  TGI: 3990 nM
T-47D breast
  GI50: 2680 nM
  TGI: > 100000 nM
TK-10 renal
  GI50: 1630 nM
  TGI: 10400 nM
UACC-62 melanoma
  GI50: 1020 nM
  TGI: 3120 nM
UO-31 renal
  GI50: 382 nM
  TGI: 3140 nM
